This is an account of results in publication PMC7346717 (Nature structural & molecular biology, 2018).

For assay [1], the target named is T1, ΔN-drSLC38A9 (ΔN-SLC38A9) (Danio rerio, UniProt Q08BA4, N227Q/N235Q/N252Q/N263Q).
T1 sequence (Q08BA4 71-549 N227Q/N235Q/N252Q/N263Q): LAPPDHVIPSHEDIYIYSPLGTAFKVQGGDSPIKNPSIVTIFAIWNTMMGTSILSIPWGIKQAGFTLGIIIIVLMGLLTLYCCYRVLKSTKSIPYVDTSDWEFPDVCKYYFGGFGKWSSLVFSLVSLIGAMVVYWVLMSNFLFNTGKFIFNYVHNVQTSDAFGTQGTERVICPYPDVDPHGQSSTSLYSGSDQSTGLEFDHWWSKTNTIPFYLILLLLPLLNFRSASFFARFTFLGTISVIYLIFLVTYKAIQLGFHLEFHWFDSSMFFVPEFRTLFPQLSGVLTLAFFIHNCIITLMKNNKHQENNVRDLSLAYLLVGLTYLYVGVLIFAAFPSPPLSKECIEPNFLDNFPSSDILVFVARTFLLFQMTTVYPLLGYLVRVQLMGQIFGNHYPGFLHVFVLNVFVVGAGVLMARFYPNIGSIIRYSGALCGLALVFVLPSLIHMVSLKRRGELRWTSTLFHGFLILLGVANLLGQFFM
The assay is described as follows: proteoliposome radioligand uptake. In kind it is biochemical. The following applies: 0.5 μM [3H]L-arginine, labelled compound; NaCl, MES pH 5.0.

The target of assay [2] is T2, drSLC38A9 (full-length, wild-type) (Danio rerio, UniProt Q08BA4).
T2 sequence (Q08BA4 1-549): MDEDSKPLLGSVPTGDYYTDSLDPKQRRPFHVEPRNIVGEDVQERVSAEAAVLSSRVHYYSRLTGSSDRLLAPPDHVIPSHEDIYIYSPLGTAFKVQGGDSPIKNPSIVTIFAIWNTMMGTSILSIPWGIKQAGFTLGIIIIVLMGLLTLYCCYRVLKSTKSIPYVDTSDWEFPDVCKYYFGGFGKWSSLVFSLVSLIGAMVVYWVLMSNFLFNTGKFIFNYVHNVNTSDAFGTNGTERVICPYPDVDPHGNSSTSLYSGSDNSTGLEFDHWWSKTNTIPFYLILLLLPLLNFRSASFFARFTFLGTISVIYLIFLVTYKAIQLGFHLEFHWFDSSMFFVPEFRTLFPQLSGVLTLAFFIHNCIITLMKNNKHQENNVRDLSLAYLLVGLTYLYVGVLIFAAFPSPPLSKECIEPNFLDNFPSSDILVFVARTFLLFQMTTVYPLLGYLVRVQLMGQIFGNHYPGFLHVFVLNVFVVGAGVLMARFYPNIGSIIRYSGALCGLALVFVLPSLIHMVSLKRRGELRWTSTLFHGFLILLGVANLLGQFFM
Put plainly: proteoliposome radioligand uptake. In kind it is biochemical. Conditions: 0.5 μM [3H]L-arginine, labelled compound; Na+ (not K+ or NMG), pH 5.0.

The structures appear in SMILES notation.

For `N=C(N)NCCC[C@H](N)C(=O)O` [arginine], the proteoliposome radioligand uptake entry in assay [1] is “the truncated drSLC38A9 protein is active and able to bind arginine similarly to the wild-type”; in assay [2] it was “robust uptake was observed in the presence of sodium”.
